# Assay results as given in EP0082498A2, “Beta-lactam compounds and process for the preparation thereof” (SAGAMI CHEMICAL RESEARCH CENTER, priority 1981, dated 1983).
# Counter-ions that a name gives are not always drawn.
# How the values were obtained:
# Test in all cases: Antibacterial activity, minimum inhibition concentration (MIC)
# Assay type in all cases: cell-based
# [1] = test system: Staphylococcus aureus FDA 209 PJC-1
# Method: (§1) Antibacterial activities of the compounds according to this invention, which had been prepared in the preceding Examples, were measured according to the method prescribed by The Committee of Amendment of "The method for measurement of the minimum inhibition concentration", The Chemotherapy Association, Japan (See Chemotherapy, Vol. 29, No. 1, pp. 76 ~ 79 (1981)).
# (§2) The test results are shown in terms of the minimum inhibition concentration (MIC) (unit: µg/mℓ) in the following Tables 1 to 4.
# [2] = test system: Escherichia coli NIHJ-JC-2
# Method: as §1, §2
# [3] = test system: Klebsiella pneumoniae PCI-602; settings: PCI602, Table 3
# Method: as §1, §2
# [4] = test system: Salmonella typhimurium IID-971; settings: Salmonella enterica, Table 3; Salmonella typhimurium IID-971; read-out: minimum inhibition concentration (MIC)
# Method: as §1, §2
# [5] = test system: Proteus mirabillis IFO 3849; settings: Table 3
# Method: as §1, §2
# [6] = test system: Pseudomonas aeruginosa NCTC 10490; settings: NCTC10490, Table 2
# Method: as §1, §2
# [7] = test system: Proteus morganii IFO 3848; settings: Morganella morganii, IFO3848, Table 2; Proteus morganii IFO-3848; read-out: minimum inhibition concentration (MIC)
# Method: as §1, §2
compound,measurement,setting,value
"CC(=O)OCC1=C(C(=O)O)N2C(=O)C(NC(=O)C(=CCl)c3csc(N)n3)C2SC1 (single isomer, unassigned) [Example 28, sodium 7-[2-chloromethylene-2-(2-aminothiazol-4-yl)-acetamido]-3-acetoxymethyl-3-cephem-4-carboxylate]",MIC,"[1]; FDA209, Table 3",12.5 µg/mL
same,MIC,"[2]; NIHJJC2, Table 3",0.1 µg/mL
same,MIC,[3],0.05 µg/mL
same,MIC,[4],12.5 µg/mL
same,MIC,[5],0.2 µg/mL
"Nc1nc(C(=CBr)C(=O)NC2C(=O)N3C(C(=O)O)=C(CSc4nncs4)CS[C@H]23)cs1 (stereo partly shown) [Example 25, 7-[2-Bromomethylene-2-(2-aminothiazol-4-yl)acetamido]-3-(1,3,4-thiadiazol-2-yl)thiomethyl-3-cephem-4-carboxylic acid]",MIC,[6],0.2 µg/mL
same,MIC,"[1]; FDA209, Table 2",0.2 µg/mL
same,MIC,"[2]; NIHJJC2, Table 2",0.1 µg/mL
same,MIC,[7],≤ 0.0063 µg/mL
"Cn1nnnc1SCC1=C(C(=O)O)N2C(=O)C(NC(=O)C(=CCl)c3csc(N)n3)C2SC1 (single isomer, unassigned) [Example 27, sodium 7-[2-chloromethylene-2-(2-aminothiazol-4-yl)acetamido]-3-(1-methyl-1H-tetrazol-5-yl)thiomethyl-3-cephem-4-carboxylate]",MIC,"[1]; FDA209, Table 3",0.78 µg/mL
same,MIC,"[2]; NIHJJC2, Table 3",0.2 µg/mL
same,MIC,[3],< 0.00625 µg/mL
same,MIC,[4],0.78 µg/mL
same,MIC,[5],0.2 µg/mL
"Cc1nnc(SCC2=C(C(=O)O)N3C(=O)C(NC(=O)C(=CBr)c4csc(N)n4)C3SC2)s1 (stereo not shown) [Example 26, 7-[2-Bromomethylene-2-(2-aminothiazol-4-yl)acetamido]-3-(2-methyl-1,3,4-thiadiazol-5-yl)thiomethy1-3-cephem-4-carboxylic acid]",MIC,[6],0.39 µg/mL
same,MIC,"[1]; FDA209, Table 2",0.39 µg/mL
same,MIC,"[2]; NIHJJC2, Table 2",0.1 µg/mL
same,MIC,[7],≤ 0.0063 µg/mL
"CCSc1nnc(SCC2=C(C(=O)O)N3C(=O)C(NC(=O)C(=CCl)c4csc(N)n4)C3SC2)s1 (single isomer, unassigned) [Example 22, 7-[2-Chloromethylene-2-(2-aminothiazol-4-yl)acetamido]-3-(2-ethylthio-l,3,4-thiadiazol-5-yl)thiomethyl-3-cephem-4-carboxylic acid hydrochloride]",MIC,[6],1.56 µg/mL
same,MIC,"[1]; FDA209, Table 2",0.2 µg/mL
same,MIC,"[2]; NIHJJC2, Table 2",0.2 µg/mL
same,MIC,[7],≤ 0.0063 µg/mL
